Data on nine compounds can be found in patent publication US6841519B1, “Isoxazoline derivatives and herbicides containing the same as the active ingredient” (Kumiai Chemical Industry Co., Ltd., priority 1999, dated 2005).

Common to all, as to type: in vivo
The test system of assay [1] is Echinochloa oryzicola Vasing. (Eo). Description: Test for herbicidal effect by paddy field soil treatment (Test Example 1). As to conditions: application amount (active ingredient) 100 g/10 a, examined at the 21st day from the treatment, index per Table 40. Put shortly: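 Scored on a standard scale at day 21 in the greenhouse: herbicidal effect of wettable powder applied to flooded water (3 cm depth) at 100 g a.i./10 ares, one day after sowing Eo into puddled paddy soil.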

Assay [2] deals with Echinochloa crus-galli (L.) Beauv. var. crusgall (Ec). Put plainly: Test for herbicidal effect by upland field soil treatment (Test Example 2), Ec. As to conditions: 100 g/10 a active ingredient, examined at 21st day. Put shortly:
(§1)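 Pre-emergence soil treatment: wettable powder diluted in water and sprayed on soil just sown with Ec and Se seeds, delivering 100 g active ingredient per 10 ares in 100 liters per 10 ares. Herbicidal effect was rated against a fixed scale 21 days later, after greenhouse growth.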

The test system of assay [3] is Setaria viridis (L.) Beauv. (Se). Description: Test for herbicidal effect by upland field soil treatment (Test Example 2), Se. The conditions noted are these: 100 g/10 a active ingredient, examined at 21st day. The procedure, abridged: as §1
Assay [4] relates to Echinochloa crus-galli (L.) Beauv. var. crusgalli (Ec). Put plainly: Test for herbicidal effect by upland foliage treatment (Test Example 3). As to conditions: 100 g/10 a active ingredient, examined at 14th day. Put shortly:
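Scored 14 days post-spray against a graded standard: greenhouse-grown Ec, 2 weeks old in upland soil, received whole-foliage application of diluted wettable powder (100 g active ingredient per 10 ares, spray volume 100 L per 10 ares).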

With `CC(c1ccccc1)S(=O)(=O)C1=NOC(C)(C)C1` (stereo not drawn) [Compound 1-581], in assay [1], the “Herbicidal effect to Eo” value is listed as 5 (A herbicidal effect or phytotoxicity of 90% or more). Also, the “Herbicidal effect to Ec” value in assay [2] is reported as 5 (A herbicidal effect or phytotoxicity of 90% or more); in assay [4], 4 (A herbicidal effect or phytotoxicity of 70% to less than 90%). For the same compound, the “Herbicidal effect to Se” value in assay [3] is listed as 5 (A herbicidal effect or phytotoxicity of 90% or more).
`COc1cccc(C)c1CS(=O)(=O)C1=NOC(C)(C)C1` [Compound 1-583]: in assay [1], the “Herbicidal effect to Eo” value was 5 (A herbicidal effect or phytotoxicity of 90% or more). Further, the “Herbicidal effect to Ec” value in assay [2] was 5 (A herbicidal effect or phytotoxicity of 90% or more); in assay [4] it was 4 (A herbicidal effect or phytotoxicity of 70% to less than 90%). In assay [3], the “Herbicidal effect to Se” value was 5 (A herbicidal effect or phytotoxicity of 90% or more).
Take `CCOc1cccc(C(F)(F)F)c1CS(=O)(=O)C1=NOC(C)(C)C1` [Compound 1-585]: in assay [1], the “Herbicidal effect to Eo” value is on record as 5 (A herbicidal effect or phytotoxicity of 90% or more). Moreover, the “Herbicidal effect to Ec” value in assay [2] and in assay [4] was 5 (A herbicidal effect or phytotoxicity of 90% or more) each time. Also, the “Herbicidal effect to Se” value in assay [3] is 5 (A herbicidal effect or phytotoxicity of 90% or more).
With `CCOCc1ccccc1CS(=O)(=O)C1=NOC(C)(C)C1` [Compound 1-586], the “Herbicidal effect to Eo” value in assay [1] is listed as 5 (A herbicidal effect or phytotoxicity of 90% or more). The “Herbicidal effect to Ec” value in assay [2] and in assay [4] was 5 (A herbicidal effect or phytotoxicity of 90% or more) in each case. Also, the “Herbicidal effect to Se” value in assay [3] is 5 (A herbicidal effect or phytotoxicity of 90% or more).
With `C=CCOc1ccccc1CS(=O)(=O)C1=NOC(C)(C)C1` [Compound 1-589], the “Herbicidal effect to Eo” value in assay [1] is listed as 5 (A herbicidal effect or phytotoxicity of 90% or more). Besides, the “Herbicidal effect to Ec” value in assay [2] is reported as 5 (A herbicidal effect or phytotoxicity of 90% or more); in assay [4], 4 (A herbicidal effect or phytotoxicity of 70% to less than 90%). Besides, in assay [3], the “Herbicidal effect to Se” value was 5 (A herbicidal effect or phytotoxicity of 90% or more).
For `C#CCOc1cccc(Cl)c1CS(=O)(=O)C1=NOC(C)(C)C1` [Compound 1-591], the “Herbicidal effect to Eo” value in assay [1] is reported as 5 (A herbicidal effect or phytotoxicity of 90% or more). The figures for the “Herbicidal effect to Ec” value in assay [2] and in assay [4] were 5 (A herbicidal effect or phytotoxicity of 90% or more) and 4 (A herbicidal effect or phytotoxicity of 70% to less than 90%), respectively. In addition, the “Herbicidal effect to Se” value in assay [3] is 5 (A herbicidal effect or phytotoxicity of 90% or more).
`CCOC(=O)c1ccccc1CS(=O)(=O)C1=NOC(C)(C)C1` [Compound 1-593]: in assay [1], the “Herbicidal effect to Eo” value is reported as 5 (A herbicidal effect or phytotoxicity of 90% or more). The “Herbicidal effect to Ec” value in assay [2] is 5 (A herbicidal effect or phytotoxicity of 90% or more); in assay [4], 4 (A herbicidal effect or phytotoxicity of 70% to less than 90%). For the same compound, in assay [3], the “Herbicidal effect to Se” value was 4 (A herbicidal effect or phytotoxicity of 70% to less than 90%).
In the case of `CC(C)OC(=O)c1ccccc1CS(=O)(=O)C1=NOC(C)(C)C1` [Compound 1-595], the “Herbicidal effect to Eo” value in assay [1] was 5 (A herbicidal effect or phytotoxicity of 90% or more). The “Herbicidal effect to Ec” value in assay [2] is recorded as 5 (A herbicidal effect or phytotoxicity of 90% or more); in assay [4] it was 4 (A herbicidal effect or phytotoxicity of 70% to less than 90%). Moreover, the “Herbicidal effect to Se” value in assay [3] was 5 (A herbicidal effect or phytotoxicity of 90% or more).
On to `CCOc1cccc(C)c1CS(=O)(=O)C1=NOC(C)(C)C1` [Compound 1-602], for which the “Herbicidal effect to Eo” value in assay [1] was 5 (A herbicidal effect or phytotoxicity of 90% or more). The “Herbicidal effect to Ec” value is on record as 5 (A herbicidal effect or phytotoxicity of 90% or more) in assay [2] and 4 (A herbicidal effect or phytotoxicity of 70% to less than 90%) in assay [4]. Moreover, in assay [3], the “Herbicidal effect to Se” value was 5 (A herbicidal effect or phytotoxicity of 90% or more).
